Literature values as cited in paper PMC3780409 (Methods in molecular biology (Clifton, N.J.), 2011).
Entries after “also recorded” stand apart in the source; their conditions may differ.

Columns and labels:
PAR1 [1] = conditions: human platelets, 5 μM for 1 min; cited from earlier work
[2] = system: thromboxane, ADP, collagen, or GPIb/IX/V receptors; conditions: specificity; cited from earlier work
endothelial cells = conditions: cited from earlier work
[3] = system: PAR2, PAR4, CXCR1, CXCR2, S1P1, S1P3, or CCR5 receptors; conditions: recombinantly transfected HEK293 cells; cited from earlier work
PAR1 [4] = conditions: sepsis, SIRS, DIC, mice; cited from earlier work
PAR1 [5] = conditions: cited from earlier work
PAR1 [6] = conditions: cited from earlier work; remark: listed apart in the source
PAR1 [7] = conditions: cited from earlier work; remark: listed apart in the source
PAR1 [8] = conditions: cited from earlier work; remark: listed apart in the source

Substance: N-pal-RCLSSSAVANRS-NH2 [Pepducin P1pal-12]
- aggregation in response to 3 nM thrombin (PAR1 [1]): complete blockade
- decrease in SFLLRN (PAR1 agonist)-induced aggregation (PAR1 [1]): 75–95%
- aggregation of platelets induced by agonists for the thromboxane, ADP, collagen, or GPIb/IX/V receptors [2]: lack of an effect
- responses to IL8, SDF-1α, S1P, thromboxane, MCP-1, RANTES (endothelial cells): no effect
- migration to ligands for PAR2, PAR4, CXCR1, CXCR2, S1P1, S1P3, or CCR5 receptors [3]: no effect
- Outcome (PAR1 [4]): Reduced organ damage and inflammatory mediators, inhibited neutrophil migration
- p38 MAPK activation (PAR1 [5]; human platelets, collagen): blocked p38 MAPK activation
- collagen-induced platelet aggregation (PAR1 [5]; human platelets): Inhibition of collagen-induced platelet aggregation
- propagation of platelet–platelet thrombi (PAR1 [5]; human whole blood, arterial flow conditions): significantly reduced
- Outcome (thrombin generation) (PAR1 [6]): Delayed thrombin generation
- thrombin plus collagen-induced calcium signal (PAR1 [7]; platelets): significantly decreased; also recorded: Decreased collagen-induced calcium signal
- prothrombinase activity (PAR1 [7]; thrombin plus collagen): decreased the prothrombinase activity to levels induced by collagen alone
- relaxation induced by TFLLRN or P1pal-19 (PAR1 [8]; precontracted rat aortic rings): decreased relaxation
- Outcome (thrombin-induced relaxation) (PAR1 [8]; rat aortic rings): Decreased thrombin-induced relaxation in rat aortic rings
